A value given as a limit tells only on which side of the number the result lay.

The IC50 is the point on the concentration scale where inhibition reaches its midpoint.

The assay deals with T1, human plasma protein factor Xa (Homo sapiens, UniProt P00742).
T1 construct: The human plasma protein factor Xa was purchased from Haematologic Technologies; purchased Haematologic Technologies (Essex Junction, Vt.); host or cells: human plasma
T1 sequence (P00742 235-488 limits assumed): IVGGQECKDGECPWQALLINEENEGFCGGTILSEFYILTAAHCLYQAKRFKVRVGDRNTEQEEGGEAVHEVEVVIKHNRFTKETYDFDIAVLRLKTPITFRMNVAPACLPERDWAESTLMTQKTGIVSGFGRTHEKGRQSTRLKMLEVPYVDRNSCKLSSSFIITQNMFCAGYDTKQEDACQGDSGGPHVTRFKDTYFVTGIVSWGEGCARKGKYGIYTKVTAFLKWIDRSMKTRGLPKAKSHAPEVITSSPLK
T1 sequence (P00742 41-179 partner limits assumed): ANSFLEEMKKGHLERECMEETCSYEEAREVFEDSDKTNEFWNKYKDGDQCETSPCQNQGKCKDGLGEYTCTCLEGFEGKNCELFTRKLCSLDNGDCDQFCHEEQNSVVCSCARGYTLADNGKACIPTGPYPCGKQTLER
As to the kind of experiment: Factor Xa IC50 determination, cleavage of paranitroanilide substrate S-2765. In kind it is biochemical. Particulars: factor Xa 1 nM, S2765 100 μM, Tris buffered saline pH 7.4, 5% DMSO. The source says:
This example illustrates methods for evaluating the compounds of the invention, along with results obtained for such assays. The in vitro and in vivo human Factor Xa activities of the inventive compounds can be determined by various procedures known in the art, such as a test for their ability to inhibit the activity of human plasma Factor Xa. […] The IC50 value is the concentration (in nM) of the compound required to provide 50% inhibition of human Factor Xa proteolytic activity.
An in vitro assay for detecting and measuring inhibition activity against Factor Xa is as follows:
The substrate S-2765 (Z-D-Arg-Gly-Arg-pNA•HCl) was obtained from Diapharma (West Chester, Ohio).
The human plasma protein factor Xa was purchased from Haematologic Technologies (Essex Junction, Vt.).
All assays, which are performed in 96-well microtiter plates, measure proteolytic activity of the enzyme (factor Xa) by following cleavage of a paranitroanilide peptide substrate. The assay buffer used for proteolytic assays was Tris buffered saline (20 mM Tris, 150 mM NaCl, 5 mM CaCl2, 0.1% Bovine serum albumin (BSA), 5% Dimethly Sulfoxide (DMSO) pH 7.4). In a 96-well microtiter plate, inhibitor was serially diluted to give a range of final concentrations from 0.01 nM to 10 μM. Duplicate sets of wells were assayed and control wells without inhibitor were included. Enzyme was added to each well, (factor Xa concentration=1 nM), the plate was shaken for 5 seconds and then incubated for 5 minutes at room temperature. S2765 was added (100 μM final) and the plate was shaken for 5 seconds (final volume in each well was 200 μl). The degree of substrate hydrolysis was measured at 405 nm on a Thermomax plate reader (Molecular Devices, Sunnyvale, Calif.) for 2 minutes. The initial velocities of substrate cleavage (mOD/min), for each range of inhibitor concentrations, were fitted to a four parameter equation using Softmax data analysis software. The parameter C, derived from the resulting curve-fit, corresponded to the concentration for half maximal inhibition (IC50).
`O=C(NCc1cn(-c2ccc(N3CCOCC3=O)cc2)cn1)c1ccc(Cl)s1` [Compound 11, 5-Chloro-N-((1-(4-(3-oxomorpholino)phenyl)-1H-imidazol-4-yl)methyl)thiophene-2-carboxamide] showed an IC50 not above 0.1 µM.
Under `O=C(NCc1cn(-c2ccc(-n3ccncc3=O)cc2)cn1)c1ccc(Cl)s1` [Compound 12, 5-Chloro-N-((1-(4-(2-oxopyrazin-1(2H)-yl)phenyl)-1H-imidazol-4-yl)methyl)thiophene-2-carboxamide] stands not above 0.1 µM; under `O=C(NCc1cn(-c2ccc(-n3ncccc3=O)cc2)cn1)c1ccc(Cl)s1` [Compound 13, 5-Chloro-N-((1-(4-(6-oxopyridazin-1(6H)-yl)phenyl)-1H-imidazol-4-yl)methyl)thiophene-2-carboxamide], not below 0.5 µM; under `Cc1cccc(=O)n1-c1ccc(-n2cnc(CNC(=O)c3ccc(Cl)s3)c2)cc1` [Compound 14, 5-chloro-N-((1-(4-(6-methyl-2-oxopyridin-1(2H)-yl)phenyl)-1H-imidazol-4-yl)methyl)thiophene-2-carboxamide], not above 0.1 µM.
The molecule `O=C(NCc1cn(-c2ccc(N3CCSCC3=O)cc2)cn1)c1ccc(Cl)s1` [Compound 15, 5-Chloro-N-((1-(4-(3-oxothiomorpholino)phenyl)-1H-imidazol-4-yl)methyl)thiophene-2-carboxamide] displayed an IC50 not above 0.1 µM.
As for `O=C(NCc1cn(-c2ccc(N3CCS(=O)(=O)CC3=O)cc2)cn1)c1ccc(Cl)s1` [Compound 16, 5-Chloro-N-((1-(4-(1,1-dioxo-3-oxothiomorpholino)phenyl)-1H-imidazol-4-yl)methyl)thiophene-2-carboxamide], the IC50 was not below 0.5 µM.
In turn, `O=C(NCc1cn(-c2ccc(N3CC[S+]([O-])CC3=O)cc2)cn1)c1ccc(Cl)s1` (centres unmarked) [Compound 17, 5-Chloro-N-((1-(4-(1,3-dioxothiomorpholino)phenyl)-1H-imidazol-4-yl)methyl)thiophene-2-carboxamide] registered an IC50 of 0.1 to 0.5 µM.
The molecule `O=C(NCc1cn(-c2ccc(N3CCCNC3=O)cc2)cn1)c1ccc(Cl)s1` [Compound 18, 5-Chloro-N-((1-(4-(2-oxo-tetrahydropyrimidin-1(2H)-yl)phenyl)-1H-imidazol-4-yl)methyl)thiophene-2-carboxamide] gave an IC50 not above 0.1 µM.
In turn, `O=C(NCc1cn(-c2ccc(N3CCNC3=O)cc2)cn1)c1ccc(Cl)s1` [Compound 19, 5-Chloro-N-((1-(4-(2-oxoimidazolidin-1-yl)phenyl)-1H-imidazol-4-yl)methyl)thiophene-2-carboxamide] returned an IC50 of 0.1 to 0.5 µM.
The molecule `O=C1CN(c2ccc(-n3cnc(CNC(=O)c4ccc(Cl)s4)c3)cc2)C(=O)CN1` [Compound 20, 5-Chloro-N-((1-(4-(2,5-dioxopiperazin-1-yl)phenyl)-1H-imidazol-4-yl)methyl)thiophene-2-carboxamide] yielded an IC50 not below 0.5 µM.
Under `O=C(NCc1cn(-c2ccc(-n3ccccc3=O)cc2F)cn1)c1ccc(Cl)s1` [Compound 21, 5-Chloro-N-((1-(2-fluoro-4-(2-oxopyridin-1(2H)-yl)phenyl)-1H-imidazol-4-yl)methyl)thiophene-2-carboxamide] stands not above 0.1 µM.
With `CS(=O)(=O)c1cc(-n2ccccc2=O)ccc1-n1cnc(CNC(=O)c2ccc(Cl)s2)c1` [Compound 22, 5-Chloro-N-((1-(2-(methylsulfonyl)-4-(2-oxopyridin-1(2H)-yl)phenyl)-1H-imidazol-4-yl)methyl)thiophene-2-carboxamide] the figure was not above 0.1 µM.
Under `C[S+]([O-])c1cc(-n2ccccc2=O)ccc1-n1cnc(CNC(=O)c2ccc(Cl)s2)c1` (centres unmarked) [Compound 23, 5-chloro-N-((1-(2-(methylsulfinyl)-4-(2-oxopyridin-1(2H)-yl)phenyl)-1H-imidazol-4-yl)methyl)thiophene-2-carboxamide] stands not above 0.1 µM; under `O=C(NCc1cn(-c2ccc(-n3ccccc3=O)cc2N2CCSCC2)cn1)c1ccc(Cl)s1` [Compound 24, 5-Chloro-N-((1-(4-(2-oxopyridin-1(2H)-yl)-2-thiomorpholinophenyl)-1H-imidazol-4-yl)methyl)thiophene-2-carboxamide], not above 0.1 µM; under `O=C(NCc1cn(-c2ccc(-n3ccccc3=O)cc2N2CCS(=O)(=O)CC2)cn1)c1ccc(Cl)s1` [Compound 25, 5-Chloro-N-((1-(4-(2-oxopyridin-1(2H)-yl)-2-(1,1-dioxo-thiomorpholin-4-yl)phenyl)-1H-imidazol-4-yl)methyl)thiophene-2-carboxamide], not above 0.1 µM.
Molecule `O=C1CN(c2cc(-n3ccccc3=O)ccc2-n2cnc(CNC(=O)c3ccc(Cl)s3)c2)CCN1` [Compound 26, 5-Chloro-N-((1-(2-(3-oxopiperazin-1-yl)-4-(2-oxopyridin-1(2H)-yl)phenyl)-1H-imidazol-4-yl)methyl)thiophene-2-carboxamide] had an IC50 not above 0.1 µM.
Under `O=C(NCc1cn(-c2ccc(-n3ccccc3=O)cc2NCCO)cn1)c1ccc(Cl)s1` [Compound 27, 5-Chloro-N-((1-(2-(2-hydroxyethylamino)-4-(2-oxopyridin-1(2H)-yl)phenyl)-1H-imidazol-4-yl)methyl)thiophene-2-carboxamide] stands not above 0.1 µM.
With `O=C(NCc1cn(-c2ccc(-n3ccccc3=O)cc2O)cn1)c1ccc(Cl)s1` [Compound 28, 5-Chloro-N-((1-(2-hydroxy-4-(2-oxopyridin-1(2H)-yl)phenyl)-1H-imidazol-4-yl)methyl)thiophene-2-carboxamide] the figure was 0.1 to 0.5 µM; with `COC(=O)c1cc(-n2ccccc2=O)ccc1-n1cnc(CNC(=O)c2ccc(Cl)s2)c1` [Compound 29, 5-Chloro-N-((1-(2-methoxycarbonyl-4-(2-oxopyridin-1(2H)-yl)phenyl)-1H-imidazol-4-yl)methyl)thiophene-2-carboxamide], not below 0.5 µM.
In turn, `O=C(NCc1cn(-c2ccc(-n3ccccc3=S)cc2)cn1)c1ccc(Cl)s1` [Compound 30, 5-Chloro-N-((1-(4-(2-thioxopyridin-1(2H)-yl)phenyl)-1H-imidazol-4-yl)methyl)thiophene-2-carboxamide] registered an IC50 not above 0.1 µM.
With `O=C(NCc1cn(-c2ccc(-n3ccccc3=O)cc2)cn1)c1ccc2cc[nH]c2c1` [Compound 31, N-((1-(4-(2-oxopyridin-1(2H)-yl)phenyl)-1H-imidazol-4-yl)methyl)-1H-indole-6-carboxamide] the figure was not below 0.5 µM.
With `C#Cc1ccc(C(=O)NCc2cn(-c3ccc(-n4ccccc4=O)cc3)cn2)s1` [Compound 32, 5-Ethynyl-N-((1-(4-(2-oxopyridin-1(2H)-yl)phenyl)-1H-imidazol-4-yl)methyl)thiophene-2-carboxamide] the figure was not above 0.1 µM.
Under `N#C/N=c1\ccccn1-c1ccc(-n2cnc(CNC(=O)c3ccc(Cl)s3)c2)cc1` [Compound 33, (E)-5-chloro-N-((1-(4-(2-(cyanoimino)pyridin-1(2H)-yl)phenyl)-1H-imidazol-4-yl)methyl)thiophene-2-carboxamide] stands not above 0.1 µM.
In the case of `C/N=c1\ccccn1-c1ccc(-n2cnc(CNC(=O)c3ccc(Cl)s3)c2)cc1` [Compound 34, (E)-5-chloro-N-((1-(4-(2-(methylimino)pyridin-1(2H)-yl)phenyl)-1H-imidazol-4-yl)methyl)thiophene-2-carboxamide], the IC50 is not above 0.1 µM.
`COc1ccc(/N=c2\ccccn2-c2ccc(-n3cnc(CNC(=O)c4ccc(Cl)s4)c3)cc2)cc1` [Compound 35, (E)-5-chloro-N-((1-(4-(2-(4-methoxyphenylimino)pyridin-1(2H)-yl)phenyl)-1H-imidazol-4-yl)methyl)thiophene-2-carboxamide] returned an IC50 not above 0.1 µM.
With `CC(=O)/N=c1\ccccn1-c1ccc(-n2cnc(CNC(=O)c3ccc(Cl)s3)c2)cc1` [Compound 36, (E)-N-((1-(4-(2-(acetylimino)pyridin-1(2H)-yl)phenyl)-1H-imidazol-4-yl)methyl)-5-chlorothiophene-2-carboxamide], the IC50 was not above 0.1 µM.
With `Cn1cc(Cl)cc1C(=O)NCc1cn(-c2ccc(-n3ccccc3=O)cc2)cn1` [Compound 37, 4-chloro-1-methyl-N-((1-(4-(2-oxopyridin-1(2H)-yl)phenyl)-1H-imidazol-4-yl)methyl)-1H-pyrrole-2-carboxamide] the figure was not below 0.5 µM; with `Cn1c(Cl)ccc1C(=O)NCc1cn(-c2ccc(-n3ccccc3=O)cc2)cn1` [Compound 38, 5-chloro-1-methyl-N-((1-(4-(2-oxopyridin-1(2H)-yl)phenyl)-1H-imidazol-4-yl)methyl)-1H-pyrrole-2-carboxamide], not below 0.5 µM.
Under `O=C(NCc1cn(-c2ccc(-n3ccccc3=O)c(F)c2)cn1)c1ccc(Cl)s1` [Compound 40, 5-chloro-N-((1-(3-fluoro-4-(2-oxopyridin-1(2H)-yl)phenyl)-1H-imidazol-4-yl)methyl)thiophene-2-carboxamide] stands not above 0.1 µM.

The values are drawn from patent US8063077B2, “Factor Xa inhibitors” (Millennium Pharmaceuticals, Inc., priority 2006, dated 2011).
